Measured values reported in patent US5180742A, “Quinone derivatives, their production and use” (Takeda Chemical Industries, Ltd., priority 1984, dated 1993).

Legend:
[1] = tested on: O2^- production in guinea pigs peritoneal macrophages; assay: Inhibitory effect on O2- production in guinea pig peritoneal macrophages (chemiluminescence); format: cell-based, guinea pig (Hartley); conditions: Cavia porcellus, Peritoneal macrophage, 3 experiments
Method: Superoxide (O2^-) Production in Guinea Pig Peritoneal Macrophages
Male Hartley guinea pigs weighing 400-450 g were given intraperitoneally 5 ml of liquid paraffin. Four days later, 15 ml of Hank's buffer were administered into the peritoneal cavity for harvest of peritoneal cells. Macrophages in the peritoneal cells were purified by the method of Wood, P. R. [J. Immunol. Methods, 28, 117-124 (1979)].
The purity of macrophages was more than 95%. The reaction mixture contained 75 μl of macrophages (1×10^7 cells/ml), 5 μl of luminol, 10 μl of phorbol myristate acetate and 10 μl of drugs in a total volume of 100 μl. O2^- Product was assayed by chemiluminescence. Drugs were dissolved in a 10% dimethyl sulfoxide.

[2] = tested on: Immunoglobulin-G1 mediated bronchoconstriction reaction; assay: Action on immunoglobulin-G1 mediated bronchoconstriction reaction in guinea pigs; format: in vivo, Hartley guinea pigs; conditions: Cavia porcellus; 20 mg/kg oral, 1 hour before antigen
Method: Action on the Immunoglobulin-G1 Mediated Bronchoconstriction Reaction in Guinea Pigs
In accordance with the method of Orange and Moore (Orange, R. P. and Moore E. G. , J. Immunol., 116, 392-397, 1976), female and male Hartley guinea pigs weighing about 350 g were sensitized by intraperitoneal application of an emulsion (1 ml) composed of egg albumin (1 mg) and Freund's complete adjuvant (produced by Wako Pure-Chemical Industries, Ltd. of Japan). 3 Weeks after the sensitization, a serum antibody level in the sensitized guinea pigs was measured by means of the 3-hours passive cutaneous anaphylaxis (PCA) reaction in guinea pigs. […] The broncoconstriction reaction resulting from the antigen-antibody reaction was measured in accordance with the Konzett-Rossler method (Konzett, H. and Rossler, R., Naunyn-Schmiedeberg'ss Arch. exp. Path. pharmak., 195, 71-74, 1940). The guinea pigs were fixed on the dorsal position under anesthesia with a urethane (1.5 g/kg given intraperitonealy). An incision was made through the trachea, which was connected to an artificial respirator (manufactured by Harvard Co.) through an endotracheal tube, with a side tube of the endotracheal tube being attached to a brochoconstricting transducer (type 7020, manufactured by Ugobasile Co.). While an air volume per ventilation was adjusted to 5 to 7 ml and an air ventilation rate was controlled at 70 times/min., with a load pressure to the lung set at 10 cm H2 O, the overflown air volume was recorded on Rectigraphy-8S (manufactured by Sanei Sokki Inc. of Japan) through a transducer. After 1 mg/kg of gallamine triethiodide was given intravenously to the animals, 1 mg/kg of antigen, egg albumin dissolved in physiological saline, was applied intravenously to induce a brochoconstriction reaction. The bronchconstriction reaction was recorded for the period of time of 15 minutes. A drug was suspended in 5% gum arabic solution, and given orally 1 hour before the application of the antigen. Percent inhibition of the immunoglobuin G1 mediated bronchoconstriction reaction in guinea pigs are shown below in Table 3.

[3] = tested on: LTD4-induced bronchoconstriction; assay: Effect on LTD4-induced bronchoconstriction in guinea pigs; format: in vivo
Method: Effect on LTD4 -Induced Brochoconstriction in Guinea Pigs
Bronchoconstriction in guinea pigs was measured by the method of Konzett-Rossler[Naunyn-Schmiedeberg's Arch. exp. Path. Pharmak., 195, 71-74(1940)]. The animals were anesthetized with urethane (1.5 g/kg, intraperitoneally) and the trachea was cannulated. The animals were artificially ventilated by means of a respirator (Harvard apparatus rodent respirator) at a rate of 70 strokes/min and a constant volume of 5-7 ml. Inflation pressure was kept constantly at 10 cm H2 O. Changes in overflow of air from a side-arm of the cannula were recorded on Rectigraph-8S via a bronchospasm transducer for 15 min. LTD4 (10 μg/kg) was given into the […] through an indwelling cannula. Each specimen suspended in a 5% gum arabic solution was also given through the same cannula 1 or 24 hrs before the LTD4 administraction.

[4] = tested on: PAF-induced bronchoconstriction; assay: Effect on PAF-induced bronchoconstriction in guinea pigs; format: in vivo; conditions: one hour before PAF
Method: Platelet Activating Factor (PAF)-Induced Bronchoconstriction in Guinea Pigs
Experimental procedure in this experiment was the same as that in LTD4 -induced bronchoconstriction shown in Experimental example 7. PAF is an intraveneous dose of 1 μg/kg was used. Each specimen suspended in a 5% gum arabic solution was given orally one hour before the PAF administration.

mice of ICR breed = format: in vivo; conditions: 1000 mg/kg oral, male ICR mice, 7 days
Description: Acute Toxicity Test in Mice (Acute Toxicity)
1000 Milligrams per kilogram of each set specimen was applied orally to groups of 5 five-weeks old male mice of ICR breed, and a number of dead animals observed for the 7-days period was counted.

5-Lipoxygenase = target: T1, 5-Lipoxygenase (Rattus norvegicus, UniProt P12527); assay: 5-Lipoxygenase inhibitory activity: 5-HETE production in RBL-1 cells (HPLC); format: cell-based, rat (RBL-1, rat basophilic leukemia cells); conditions: arachidonic acid + A 23187, 37° C., 20 minutes, read-out: 5-HETE production inhibiting effect (IC50)
T1 construct: endogenous in cells; host or cells: RBL-1 (rat basophilic leukemia cells)
T1 sequence (P12527 1-673): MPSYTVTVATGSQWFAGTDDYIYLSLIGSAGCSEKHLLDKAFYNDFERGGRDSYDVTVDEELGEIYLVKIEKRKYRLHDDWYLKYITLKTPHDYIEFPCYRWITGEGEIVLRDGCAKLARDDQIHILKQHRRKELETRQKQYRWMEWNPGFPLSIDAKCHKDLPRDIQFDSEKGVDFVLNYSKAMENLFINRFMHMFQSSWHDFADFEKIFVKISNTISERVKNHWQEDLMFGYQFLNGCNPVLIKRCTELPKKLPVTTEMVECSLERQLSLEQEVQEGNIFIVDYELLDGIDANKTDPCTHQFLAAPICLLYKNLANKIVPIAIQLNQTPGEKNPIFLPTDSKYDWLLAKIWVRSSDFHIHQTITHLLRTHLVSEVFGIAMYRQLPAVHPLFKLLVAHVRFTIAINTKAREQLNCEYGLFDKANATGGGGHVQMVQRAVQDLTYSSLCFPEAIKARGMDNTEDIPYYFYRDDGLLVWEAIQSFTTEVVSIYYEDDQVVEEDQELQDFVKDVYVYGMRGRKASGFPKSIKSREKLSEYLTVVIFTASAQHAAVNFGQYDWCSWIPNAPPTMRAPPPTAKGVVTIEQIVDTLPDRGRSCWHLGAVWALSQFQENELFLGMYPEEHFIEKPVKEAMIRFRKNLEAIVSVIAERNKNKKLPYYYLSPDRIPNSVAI
Method: 5-Lipoxygenase Inhibitory Activity
10^7 RBL-1 cells (rat basophilic leukemia cells) were suspended in 0.5 ml of MCM (mast cell medium), and test solutions (made up of 0.5 ml of MCM, 50 μg of arachidonic acid, 10 μg of A 23187 (calcium ionophore, Eli Lilly) and 1 μM, 0.1 μM, 0.01 μM and0.001 μM as the final concentration of the quinone compound, respectively) prepared previously were added respectively to the suspension, followed by reaction at 37° C. for 20 minutes. After the conclusion of the reaction, 4 ml of ethanol and 1,4-dimethoxy-2-methyl-3-(3-methoxypropyl)naphthalene as the internal reference drug were added to the reaction solution, and the mixture was shaken thoroughly and allowed to stand at room temperature for 10 minutes. Then, it was centrifuged (2000 r.p.m.) for 10 minutes, and the supernatant fluid was separated and concentrated to dryness under reduced pressure. 0.5 Milliliter of 60% aqueous methanol was added to the concentrate, and 100 μl of the resulting solution was taken and subjected to high-performance liquid chromatography to determine amount of 5-HETE (5-hydroxyeicosatetraenoic acid). Determination of 5-HETE was made through measurement of an absorption at 237 nm with a UV absorption monitor.
The 5-HETE production inhibitory effect (IE) was expressed by [formula] wherein a is a peak height or peak area corrected by the peak for the internal reference when the quinone compound is not contained; b is a peak height or peak area corrected by the peak for the internal reference when the quinone compound is contained.

[5] = tested on: lipid peroxides production in rat brain homogenates; assay: Inhibitory action on lipid peroxides production in rat brain homogenates (thiobarbituric acid method); format: biochemical, rat (SD); conditions: n = 4-6
Method: Inhibitory Action on Lipid Peroxides Production in Rat Brain Homogenates
The male SD rat brain tissue was used as 5% homogenate in phosphate-buffered solution. After incubation of the homogenate for 1 hour at 37° C., the amount of lipid peroxides produced was determined by the thiobarbituric acid method according to the description of Ohkawa et al. (Analytical Biochemistry, 95: 551, 1979)
Test compounds were used as a solution of dimethylsulfoxide. The inhibitory action on lipid peroxide production was expressed as a % inhibition as compared with the amount of production in the vehicle group. Results

Cc1c(C)c2c(c(C)c1O)CCC(C)(CCCC(C)CCCC(C)CCCC(C)C)O2 (racemic) [dl-α-tocophenol, reference compound]
inhibition at 100 µM ([1]; 10^-4 M): 11 ± 6% | inhibition at 10 µM ([1]; 10^-5 M): 3 ± 2%

COc1ccc(C(CCCCC(=O)O)C2=C(C)C(=O)C(C)=C(C)C2=O)cc1 (stereo not shown) [Compound No. 22, 6-(3,5,6-trimethyl-1,4-benzoquinon-2-yl)-6-(4-methoxyphenyl)hexanoicacid]
inhibition in vivo at 20 mg/kg [2]: 82% | % Inhibition of LTD4-induced bronchoconstriction ([3]; 0.313 mg/kg, 1 hr. before LTD4): 39% | % Inhibition of LTD4-induced bronchoconstriction ([3]; 1.25 mg/kg, 1 hr. before LTD4): 85% | % Inhibition of LTD4-induced bronchoconstriction ([3]; 5 mg/kg, 1 hr. before LTD4): 90% | % Inhibition of LTD4-induced bronchoconstriction ([3]; 5 mg/kg, 24 hrs. before LTD4): 24% | % Inhibition of PAF-induced bronchoconstriction ([4]; 0.313 mg/kg oral): 43% | % Inhibition of PAF-induced bronchoconstriction ([4]; 1.25 mg/kg oral): 92% | % Inhibition of PAF-induced bronchoconstriction ([4]; 5 mg/kg oral): 91%

CC1=C(C)C(=O)C(C(CCCCCC(=O)O)c2ccc(F)cc2)=C(C)C1=O (stereo not shown) [Compound No. 87]
inhibition in vivo at 20 mg/kg [2]: 81% | Acute toxicity (number of dead animals/number of animals used) (mice of ICR breed): 0/5 | % Inhibition of LTD4-induced bronchoconstriction ([3]; 0.313 mg/kg, 1 hr. before LTD4): 80% | % Inhibition of LTD4-induced bronchoconstriction ([3]; 1.25 mg/kg, 1 hr. before LTD4): 89% | % Inhibition of LTD4-induced bronchoconstriction ([3]; 5 mg/kg, 1 hr. before LTD4): 93% | % Inhibition of LTD4-induced bronchoconstriction ([3]; 5 mg/kg, 24 hrs. before LTD4): 79% | IC50 (5-Lipoxygenase): 100 nM | % Inhibition of PAF-induced bronchoconstriction ([4]; 0.08 mg/kg oral): 64% | % Inhibition of PAF-induced bronchoconstriction ([4]; 0.313 mg/kg oral): 48% | % Inhibition of PAF-induced bronchoconstriction ([4]; 1.25 mg/kg oral): 71%

CC1=C(C)C(=O)C(C(CCCCCC(=O)O)c2ccc(Cl)cc2)=C(C)C1=O (stereo not shown) [Compound No. 90, 7-(4-chlorophenyl)-7-(3,5,6-trimethyl-1,4-benzoquinon-2-yl)heptanoic acid]
inhibition in vivo at 20 mg/kg [2]: 61% | Acute toxicity (number of dead animals/number of animals used) (mice of ICR breed): 0/5

COc1ccc(C(CCCCCC(=O)O)C2=C(C)C(=O)C(C)=C(C)C2=O)cc1 (stereo not shown) [compound 23]
inhibition in vivo at 20 mg/kg [2]: 83% | % Inhibition of LTD4-induced bronchoconstriction ([3]; 0.313 mg/kg, 1 hr. before LTD4): 69% | % Inhibition of LTD4-induced bronchoconstriction ([3]; 1.25 mg/kg, 1 hr. before LTD4): 80% | % Inhibition of LTD4-induced bronchoconstriction ([3]; 5 mg/kg, 1 hr. before LTD4): 68% | % Inhibition of LTD4-induced bronchoconstriction ([3]; 5 mg/kg, 24 hrs. before LTD4): 49% | IC50 (5-Lipoxygenase): 10 nM | % Inhibition of PAF-induced bronchoconstriction ([4]; 0.08 mg/kg oral): 75% | % Inhibition of PAF-induced bronchoconstriction ([4]; 0.313 mg/kg oral): 71% | % Inhibition of PAF-induced bronchoconstriction ([4]; 1.25 mg/kg oral): 73%

CC1=C(C)C(=O)C(C(CCCCCC(=O)O)c2ccc(C)s2)=C(C)C1=O (stereo not shown) [compound 33]
inhibition in vivo at 20 mg/kg [2]: 75% | Acute toxicity (number of dead animals/number of animals used) (mice of ICR breed): 0/5

CC1=C(C)C(=O)C(C(CCCC(=O)O)c2ccccc2)=C(C)C1=O (stereo not shown) [compound 36]
inhibition in vivo at 20 mg/kg [2]: 80% | Acute toxicity (number of dead animals/number of animals used) (mice of ICR breed): 0/5 | IC50 (5-Lipoxygenase): 320 nM

COC1=C(OC)C(=O)C(C(CCCCCC(=O)O)c2ccc(F)cc2)=C(C)C1=O (stereo not shown) [compound 88]
inhibition in vivo at 20 mg/kg [2]: 79% | Acute toxicity (number of dead animals/number of animals used) (mice of ICR breed): 0/5

CC1=C(C(CCCCCC(=O)O)c2ccc(Cl)cc2)C(=O)c2ccccc2C1=O (stereo not shown) [compound 92]
inhibition in vivo at 20 mg/kg [2]: 92% | Acute toxicity (number of dead animals/number of animals used) (mice of ICR breed): 0/5

COC1=C(OC)C(=O)C(C(CCCCCC(=O)O)c2ccc(C)cc2)=C(C)C1=O (stereo not shown) [compound 94]
inhibition in vivo at 20 mg/kg [2]: 81% | Acute toxicity (number of dead animals/number of animals used) (mice of ICR breed): 0/5

CC1=C(C)C(=O)C(C(CCCCCC(=O)O)c2ccc(C(C)C)cc2)=C(C)C1=O (stereo not shown) [compound 95]
inhibition in vivo at 20 mg/kg [2]: 63% | Acute toxicity (number of dead animals/number of animals used) (mice of ICR breed): 0/5

COc1ccc(C(CCCCCC(=O)O)C2=C(C)C(=O)C(C)=C(C)C2=O)cc1OC (stereo not shown) [compound 97]
inhibition in vivo at 20 mg/kg [2]: 85% | Acute toxicity (number of dead animals/number of animals used) (mice of ICR breed): 0/5

tocopherol [reference compound]
Inhibition of lipid peroxides production ([5]; 10^-4 M): 46.5 ± 2.5% | Inhibition of lipid peroxides production ([5]; 10^-5 M): 51.8 ± 10.2% | Inhibition of lipid peroxides production ([5]; 10^-6 M): 0%
